Results: the NIST ThermoML archive (doi:10.1007/s10765-005-5567-5)
Numbers after ± are expanded uncertainties.

Conditions: Liquid; for thermal conductivity: Coaxial cylinder method; for viscosity: Capillary tube (Ostwald / Ubbelohde) method

O [water]
Conditions | thermal conductivity [W/m/K] | viscosity [mPa·s]
298.3 K, 100 kPa | 0.607 ± 0.017 | –
298.3 K, 10000 kPa | 0.613 ± 0.017 | –
298.3 K, 30000 kPa | 0.623 ± 0.018 | –
299.76 K, 100 kPa | – | 0.8591 ± 0.027
299.76 K, 10000 kPa | – | 0.8561 ± 0.027
299.76 K, 30000 kPa | – | 0.8551 ± 0.027
313.1 K, 100 kPa | 0.629 ± 0.018 | –
313.1 K, 10000 kPa | 0.634 ± 0.018 | –
313.1 K, 30000 kPa | 0.644 ± 0.018 | –
315.62 K, 100 kPa | – | 0.6245 ± 0.02
315.62 K, 10000 kPa | – | 0.6234 ± 0.02
315.62 K, 30000 kPa | – | 0.6292 ± 0.02
328.37 K, 100 kPa | – | 0.5 ± 0.016
328.37 K, 10000 kPa | – | 0.503 ± 0.016
328.37 K, 30000 kPa | – | 0.5071 ± 0.016
333.3 K, 100 kPa | 0.651 ± 0.018 | –
333.3 K, 10000 kPa | 0.656 ± 0.018 | –
333.3 K, 30000 kPa | 0.666 ± 0.019 | –
347.95 K, 100 kPa | – | 0.3761 ± 0.012
347.95 K, 10000 kPa | – | 0.3803 ± 0.012
347.95 K, 30000 kPa | – | 0.3872 ± 0.012
352.9 K, 100 kPa | 0.667 ± 0.019 | –
352.9 K, 10000 kPa | 0.672 ± 0.019 | –
352.9 K, 30000 kPa | 0.682 ± 0.019 | –
363.4 K, 100 kPa | 0.673 ± 0.019 | –
363.4 K, 10000 kPa | 0.678 ± 0.019 | –
363.4 K, 30000 kPa | 0.689 ± 0.019 | –
375.85 K, 10000 kPa | – | 0.2772 ± 0.0087
375.85 K, 30000 kPa | – | 0.2833 ± 0.0089
393.1 K, 10000 kPa | 0.689 ± 0.019 | –
393.1 K, 30000 kPa | 0.702 ± 0.02 | –
403.95 K, 10000 kPa | – | 0.2131 ± 0.0067
403.95 K, 30000 kPa | – | 0.2181 ± 0.0068
423.3 K, 10000 kPa | 0.691 ± 0.019 | –
423.3 K, 30000 kPa | 0.704 ± 0.02 | –
431.43 K, 10000 kPa | – | 0.1738 ± 0.0054
431.43 K, 30000 kPa | – | 0.1786 ± 0.0056
448.7 K, 10000 kPa | 0.685 ± 0.019 | –
448.7 K, 30000 kPa | 0.699 ± 0.02 | –
474.3 K, 10000 kPa | 0.672 ± 0.019 | –
474.3 K, 30000 kPa | 0.689 ± 0.019 | –
476.4 K, 10000 kPa | – | 0.1326 ± 0.0042
476.4 K, 30000 kPa | – | 0.1375 ± 0.0043
499.3 K, 10000 kPa | 0.652 ± 0.018 | –
499.3 K, 30000 kPa | 0.672 ± 0.019 | –
502.75 K, 10000 kPa | – | 0.1189 ± 0.0038
502.75 K, 30000 kPa | – | 0.1239 ± 0.0039
523.4 K, 10000 kPa | 0.624 ± 0.018 | –
523.4 K, 30000 kPa | 0.649 ± 0.018 | –
524.75 K, 10000 kPa | – | 0.1081 ± 0.0035
524.75 K, 30000 kPa | – | 0.1132 ± 0.0036
548.4 K, 10000 kPa | 0.591 ± 0.017 | –
548.4 K, 30000 kPa | 0.622 ± 0.018 | –
549.5 K, 10000 kPa | – | 0.0961 ± 0.0031
549.5 K, 30000 kPa | – | 0.1011 ± 0.0032
573.5 K, 10000 kPa | 0.547 ± 0.015 | –
573.5 K, 30000 kPa | 0.588 ± 0.017 | –
574.54 K, 10000 kPa | – | 0.0851 ± 0.0028
574.54 K, 30000 kPa | – | 0.0918 ± 0.003
